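Results reflect a 48-hour exposure of cells in 96-well plates to compound at five concentrations. TGI: total growth inhibition.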
What was measured:
Assay in all cases: DTP human tumour cell line panel, 48 h
A498 renal = test system: A498 renal
A549 NSCLC = test system: A549 NSCLC
CAKI-1 renal = test system: CAKI-1 renal
HCT-116 colon = test system: HCT-116 colon
HCT-15 colon = test system: HCT-15 colon
HL-60(TB) leukemia = test system: HL-60(TB) leukemia
IGROV1 ovarian = test system: IGROV1 ovarian
KM12 colon = test system: KM12 colon
MDA-MB-435 = test system: MDA-MB-435
NCI-H226 lung = test system: NCI-H226 lung
NCI-H23 lung = test system: NCI-H23 lung
NCI/ADR-RES ovarian = test system: NCI/ADR-RES ovarian
OVCAR-5 ovarian = test system: OVCAR-5 ovarian
PC-3 prostate = test system: PC-3 prostate
RPMI-8226 leukemia = test system: RPMI-8226 leukemia
SF-268 CNS = test system: SF-268 CNS
U251 CNS = test system: U251 CNS
UACC-257 melanoma = test system: UACC-257 melanoma
UO-31 renal = test system: UO-31 renal
HCC-2998 colon = test system: HCC-2998 colon

| Compound | TGI (A498 renal) | TGI (A549 NSCLC) | TGI (CAKI-1 renal) | TGI (HCT-116 colon) | TGI (HCT-15 colon) | TGI (HL-60(TB) leukemia) | TGI (IGROV1 ovarian) | TGI (KM12 colon) | TGI (MDA-MB-435) | TGI (NCI-H226 lung) | TGI (NCI-H23 lung) | TGI (NCI/ADR-RES ovarian) | TGI (OVCAR-5 ovarian) | TGI (PC-3 prostate) | TGI (RPMI-8226 leukemia) | TGI (SF-268 CNS) | TGI (U251 CNS) | TGI (UACC-257 melanoma) | TGI (UO-31 renal) | TGI (HCC-2998 colon) |
| --- | --- | --- | --- | --- | --- | --- | --- | --- | --- | --- | --- | --- | --- | --- | --- | --- | --- | --- | --- | --- |
| COc1cc2c(c(O)c1OC)C(O)C1CCC(=O)N1C2c1cccc2ccccc12 (configuration not stated) | > 100 µM | > 100 µM | > 100 µM | > 100 µM | > 100 µM | > 100 µM | > 100 µM | > 100 µM | > 100 µM | > 100 µM | > 100 µM | > 100 µM | > 100 µM | > 100 µM | > 100 µM | > 100 µM | > 100 µM | > 100 µM | > 100 µM |  |
| COc1ccc(/C=C2\C(=O)N(C)C(=O)c3cc(OC)c(OC)cc32)cc1OC | > 100 µM | > 100 µM | > 100 µM | > 100 µM | > 100 µM | 40.1 µM | > 100 µM |  | > 100 µM | 34.7 µM | > 100 µM |  | > 100 µM | > 100 µM | 66.9 µM |  | > 100 µM | > 100 µM | > 100 µM | > 100 µM |
| O=Cc1c2ccccc2n2ccc3c4ccccc4[nH]c3c12 |  | > 10 µM | > 10 µM | > 10 µM | > 10 µM | > 10 µM | > 10 µM | > 10 µM | > 10 µM | > 10 µM | > 10 µM | > 10 µM | > 10 µM | > 10 µM | > 10 µM | > 10 µM | > 10 µM | > 10 µM | > 10 µM | > 10 µM |
| c1ccc2c(c1)Nc1ccccc1[P+]21c2ccccc2Nc2ccccc21 | 2.93 µM | 3.29 µM | 11.2 µM | 1.05 µM | 24.5 µM | 0.485 µM |  |  | 1.27 µM | 0.66 µM | 0.83 µM | > 100 µM | 2.04 µM | 0.609 µM |  | 6.63 µM | 1.4 µM |  | 23.3 µM | 2.44 µM |
| COC(=O)C1CCOC(C)N1C(=O)OC(C)(C)C (configuration not stated) |  | > 100 µM | > 100 µM | > 100 µM | > 100 µM | > 100 µM | > 100 µM | > 100 µM | > 100 µM | > 100 µM | > 100 µM | > 100 µM | > 100 µM | > 100 µM | > 100 µM | > 100 µM | > 100 µM | > 100 µM | > 100 µM | > 100 µM |
| O=C1NC(=O)C(CC(C(=O)C(=O)Nc2ccccc2Cl)C(=O)c2ccc3ccccc3c2)C(=O)N1 (configuration not stated) |  | > 100 µM | > 100 µM | > 100 µM | > 100 µM | > 100 µM | > 100 µM | > 100 µM | > 100 µM | > 100 µM | > 100 µM | > 100 µM | > 100 µM | > 100 µM |  | > 100 µM | > 100 µM | > 100 µM | > 100 µM | > 100 µM |
| CC(=O)N1CN2C(=O)CCC2c2ccccc21 (configuration not stated) | > 100 µM | > 100 µM | > 100 µM | > 100 µM | > 100 µM |  | > 100 µM | > 100 µM | > 100 µM | > 100 µM | > 100 µM | > 100 µM | > 100 µM | > 100 µM | > 100 µM | > 100 µM | > 100 µM | > 100 µM | > 100 µM | > 100 µM |
| N#CC1Cc2cc3c(cc21)OCO3 (configuration not stated) | > 100 µM | > 100 µM | > 100 µM | > 100 µM | > 100 µM |  | > 100 µM | > 100 µM | > 100 µM | > 100 µM | > 100 µM | > 100 µM | > 100 µM | > 100 µM |  |  | > 100 µM | > 100 µM | > 100 µM | > 100 µM |
| O=C1CCCC2C(O)CCC[C@H]12 (some centres not stated) |  | > 100 µM | > 100 µM | > 100 µM | > 100 µM | > 100 µM | > 100 µM | > 100 µM |  | > 100 µM | > 100 µM | > 100 µM | > 100 µM | > 100 µM |  | > 100 µM | > 100 µM | > 100 µM | > 100 µM | > 100 µM |
| Cc1ccc(S(=O)(=O)n2c3c(c4ccccc42)CCN2C(=O)C(S(=O)(=O)c4ccccc4)=CCC32)cc1 (configuration not stated) | 0.582 µM | 2.77 µM | 0.872 µM |  | 0.421 µM | 0.468 µM | 0.36 µM | 0.645 µM | 0.445 µM |  | 0.335 µM |  | 0.581 µM | 0.562 µM | 0.749 µM |  | 0.404 µM | 0.319 µM | 0.384 µM | 0.44 µM |
| O=[N+]([O-])c1ccc(-c2nc3ccc([N+](=O)[O-])cc3[nH]2)cc1 |  | 62.7 µM | > 100 µM | 38.3 µM | > 100 µM |  | > 100 µM | > 100 µM | 89.5 µM | > 100 µM | 65.3 µM | 57.6 µM |  | 70.7 µM | > 100 µM | > 100 µM | 70.1 µM | > 100 µM | 61.4 µM | > 100 µM |
| N#Cc1n[nH]n(C2CCCCC2)c1=O | > 100 µM | > 100 µM | > 100 µM | > 100 µM | > 100 µM | > 100 µM | > 100 µM | > 100 µM | > 100 µM | > 100 µM | > 100 µM | > 100 µM | > 100 µM | > 100 µM |  | > 100 µM | > 100 µM | > 100 µM | > 100 µM | > 100 µM |
| C1=Nc2ccc(cc2)N=Cc2ccc(cc2)OCc2cccc(n2)COc2ccc1cc2 | > 100 µM | > 100 µM | > 100 µM | > 100 µM | > 100 µM | > 100 µM | > 100 µM | > 100 µM | > 100 µM | > 100 µM | > 100 µM | > 100 µM | > 100 µM | > 100 µM | > 100 µM | > 100 µM | > 100 µM | > 100 µM | > 100 µM |  |
